Target: SARS-COV-2 3CLpro/Mpro protease (Severe acute respiratory syndrome coronavirus 2 (2019-nCoV) (SARS-CoV-2), UniProt P0DTD1)
Assay: Inhibitory effect on SARS-COV-2 3CLpro/Mpro protease by fluorescence resonance energy transfer
Assay type: biochemical
Details: IC50 (nM), Inhibition on SARS-CoV-2 3CLpro/Mpro protease, activity intervals A-D

Row | Compound | IC50
1 | CNc1cncc(C(=O)N2CCC[C@@H](Nc3c(C(=O)N4C5CCCC4CCC5)cc(Br)cc3[N+](=O)[O-])C2)c1 [Example 292] | 10 to 50 nM
2 | CNc1cncc(C(=O)N2CCC[C@@H](Nc3c(C(=O)N4CC5C=CC(C4)N5)cc(Br)cc3[N+](=O)[O-])C2)c1 [Example 335] | 10 to 50 nM

Same assay, conditions: activity intervals A-D, read-out: IC50 (nM), Inhibition on SARS-CoV-2 3CLpro/Mpro protease

Row | Compound | IC50
3 | CNc1cncc(C(=O)N2CCC[C@@H](Nc3c(C(=O)N4CCC(N5C[C@@H](C)O[C@@H](C)C5)CC4)cc(Br)cc3[N+](=O)[O-])C2)c1 [Example 289] | 10 to 50 nM
4 | CNc1cncc(C(=O)N2CCC[C@@H](Nc3c(C(=O)N4C[C@H]5C[C@@H]4CO5)cc(Br)cc3[N+](=O)[O-])C2)c1 [Example 290] | 10 to 50 nM
5 | CNc1cncc(C(=O)N2CCC[C@@H](Nc3c(C(=O)N4C[C@@H]5C[C@H]4CO5)cc(Br)cc3[N+](=O)[O-])C2)c1 [Example 291] | 10 to 50 nM
6 | CNc1cncc(C(=O)N2CCC[C@@H](Nc3c(C(=O)N4CCC5(CC4)CCC(C)(C)O5)cc(Br)cc3[N+](=O)[O-])C2)c1 [Example 293] | 10 to 50 nM
7 | CNc1cncc(C(=O)N2CCC[C@@H](Nc3c(C(=O)N4CCOC5CC54)cc(Br)cc3[N+](=O)[O-])C2)c1 (stereo partly drawn) [Example 294] | 10 to 50 nM
8 | O=C(c1cc(Br)cc([N+](=O)[O-])c1N[C@@H]1CCCN(C(=O)C2CNCC(F)(F)C2)C1)N1CCCCC1 (stereo partly drawn) [Example 296] | 10 to 50 nM
9 | Cc1cc(C(=O)N2C[C@H](Nc3c(C(=O)NCc4ccc(Cl)cc4)cc(Br)cc3[N+](=O)[O-])C3(CC3)C2)cc(=O)[nH]1 [Example 297] | 10 to 50 nM
10 | CNc1cncc(C(=O)N2CC(Nc3c(C(=O)N4CCN(CCOC)CC4)cc(Br)cc3[N+](=O)[O-])C(F)(F)C2)c1 (stereo not drawn) [Example 298] | 10 to 50 nM
11 | Cc1cc(C(=O)N2C[C@H](Nc3c(C(=O)NC4CCCCC4)cc(Br)cc3[N+](=O)[O-])C3(CC3)C2)cc(=O)[nH]1 [Example 299] | 10 to 50 nM
12 | Cc1cc(C(=O)N2CC(Nc3c(C(=O)N4CCN(C5CCCCC5)CC4)cc(Br)cc3[N+](=O)[O-])C(F)(F)C2)cc(=O)[nH]1 (stereo not drawn) [Example 300] | 10 to 50 nM
13 | CNc1cncc(C(=O)NC[C@@H](COC)Nc2c(C(=O)N3CCCCC3)cc(Br)cc2[N+](=O)[O-])c1 [Example 301] | 50 to 100 nM
14 | NC(=O)c1cncc(C(=O)N2CCC[C@@H](Nc3c(C(=O)N4CCCCC4)cc(Br)cc3[N+](=O)[O-])C2)c1 [Example 302] | 100 to 200 nM
15 | CNc1cncc(C(=O)N2CCC[C@@H](Nc3c(C(=O)N4CC(O)CC(F)(F)C4)cc(Br)cc3[N+](=O)[O-])C2)c1 (stereo partly drawn) [Example 303] | 10 to 50 nM
16 | CNc1cncc(C(=O)N2CCC[C@@H](Nc3c(C(=O)N4Cc5cnn(C)c5C4)cc(Br)cc3[N+](=O)[O-])C2)c1 [Example 304] | 50 to 100 nM
17 | CNc1cncc(C(=O)N2CCC[C@@H](Nc3c(C(=O)N4CCCOCC4)cc(Br)cc3[N+](=O)[O-])C2)c1 [Example 305] | 10 to 50 nM
18 | CNc1cncc(C(=O)N2C[C@H](Nc3c(C(=O)N4CCCCC4)cc(Br)cc3[N+](=O)[O-])[C@@H](OC)C2)c1 [Example 306] | 10 to 50 nM
19 | CNc1cncc(C(=O)N2CCC[C@@H](Nc3c(C(=O)N4CC(F)(F)CC(F)(F)C4)cc(Br)cc3[N+](=O)[O-])C2)c1 [Example 307] | 10 to 50 nM
20 | CNc1cncc(C(=O)N2C[C@H](Nc3c(C(=O)N4CCCCC4)cc(Br)cc3[N+](=O)[O-])[C@H](OC)C2)c1 [Example 308] | 10 to 50 nM
21 | CNc1cncc(C(=O)N2CCC[C@@H](Nc3c(C(=O)N4CCc5oncc5C4)cc(Br)cc3[N+](=O)[O-])C2)c1 [Example 309] | 10 to 50 nM
22 | CNc1cncc(C(=O)N2CCC[C@@H](Nc3c(C(=O)N4CCC=C(C)C4)cc(Br)cc3[N+](=O)[O-])C2)c1 [Example 310] | 10 to 50 nM
23 | CNc1cncc(C(=O)N2CCC[C@@H](Nc3c(C(=O)N4CC=C(C)CC4)cc(Br)cc3[N+](=O)[O-])C2)c1 [Example 311] | 10 to 50 nM
24 | CNc1cncc(C(=O)N2CCC[C@@H](Nc3c(C(=O)N4CCc5nn(C)cc5C4)cc(Br)cc3[N+](=O)[O-])C2)c1 [Example 313] | 10 to 50 nM
25 | CNc1cncc(C(=O)N2CCC[C@@H](Nc3c(C(=O)N4CCn5cncc5C4)cc(Br)cc3[N+](=O)[O-])C2)c1 [Example 314] | 10 to 50 nM
26 | CNc1cncc(C(=O)N2CCC[C@@H](Nc3c(C(=O)N4CCc5ncsc5C4)cc(Br)cc3[N+](=O)[O-])C2)c1 [Example 315] | 10 to 50 nM
27 | CNc1cncc(C(=O)N2CCC[C@@H](Nc3c(C(=O)N4CCc5oc(C)nc5C4)cc(Br)cc3[N+](=O)[O-])C2)c1 [Example 316] | 10 to 50 nM
28 | CNc1cncc(C(=O)N2CCC[C@@H](Nc3c(C(=O)N4CCC(C5CCOCC5)CC4)cc(Br)cc3[N+](=O)[O-])C2)c1 [Example 317] | 10 to 50 nM
29 | CNc1cncc(C(=O)N2C[C@H](Nc3c(C(=O)N4CCN(CCOC)CC4)cc(Br)cc3[N+](=O)[O-])C(C)(O)C2)c1 (stereo partly drawn) [Example 318] | 10 to 50 nM
30 | CNc1cncc(C(=O)N2CCC[C@@H](Nc3c(C(=O)N4CCCCC4)cc(Br)cc3C(F)(F)F)C2)c1 [Example 319] | 50 to 100 nM

Row | Compound | IC50
31 | CNc1cncc(C(=O)N2C[C@H](Nc3c(C(=O)N4CCO[C@H](C)C4)cc(Br)cc3[N+](=O)[O-])[C@@H](OC)C2)c1 [Example 322] | 10 to 50 nM
32 | CNc1cncc(C(=O)N2CCC[C@@H](Nc3c(C(=O)N4CCn5cccc5C4)cc(Br)cc3[N+](=O)[O-])C2)c1 [Example 323] | 10 to 50 nM
33 | C=C1CNCC(C(=O)N2CCC[C@@H](Nc3c(C(=O)N4CCCCC4)cc(Br)cc3[N+](=O)[O-])C2)C1 (stereo partly drawn) [Example 324] | 100 to 200 nM
34 | C[C@@H]1CN(C(=O)c2cc(Br)cc([N+](=O)[O-])c2N[C@@H]2CCCN(C(=O)[C@H]3CNCC(F)(F)C3)C2)C[C@H](C)O1 [Example 325] | 10 to 50 nM
35 | CNc1ccc2c(C(=O)N3CCC[C@@H](Nc4c(C(=O)N5C[C@@H](C)O[C@@H](C)C5)cc(Br)cc4[N+](=O)[O-])C3)cncc2c1 [Example 326] | 10 to 50 nM
36 | O=C(c1cc(Br)cc([N+](=O)[O-])c1N[C@@H]1CCCN(C(=O)[C@H]2CNCC(F)(F)C2)C1)N1CCOC2(CC2)C1 [Example 328] | 10 to 50 nM
37 | C[C@@H]1CN(C(=O)c2cc(Br)cc([N+](=O)[O-])c2N[C@@H]2CCCN(C(=O)[C@H]3CNCC(F)(F)C3)C2)CCO1 [Example 329] | 10 to 50 nM
38 | O=C(c1cc(Br)cc([N+](=O)[O-])c1N[C@@H]1CCCN(C(=O)[C@H]2CNCC(F)(F)C2)C1)N1CCO[C@H](C(F)(F)F)C1 [Example 330] | 10 to 50 nM
39 | O=C(c1cc(Br)cc([N+](=O)[O-])c1N[C@@H]1CCCN(C(=O)[C@H]2CNCC(F)(F)C2)C1)N1CC2CCC(C1)O2 [Example 332] | 10 to 50 nM
40 | O=C(c1cc(Br)cc([N+](=O)[O-])c1N[C@@H]1CCCN(C(=O)[C@H]2CNCC(F)(F)C2)C1)N1CCC2(CCCO2)CC1 [Example 333] | 10 to 50 nM
41 | CNc1cncc(C(=O)N2CCC[C@@H](Nc3c(C(=O)N4CCCOC(C)C4)cc(Br)cc3[N+](=O)[O-])C2)c1 (stereo partly drawn) [Example 334] | 10 to 50 nM
42 | CNc1cncc(C(=O)N2CCC[C@@H](Nc3c(C(=O)N4CC=CCC4)cc(Br)cc3[N+](=O)[O-])C2)c1 [Example 336, (R)-(5-Bromo-2-((1-(5-(methylamino)nicotinoyl)piperidin-3-yl)amino)-3-nitrophenyl)(3,6-dihydropyridin-1 (2H)-yl) methanone] | 10 to 50 nM
43 | CNc1cncc(C(=O)N2CCC[C@@H](Nc3c(C(=O)N4CC=C(F)CC4)cc(Br)cc3[N+](=O)[O-])C2)c1 [Example 337, (R)-(5-Bromo-2-((1-(5-(methylamino)nicotinoyl)piperidin-3-yl)amino)-3-nitrophenyl)(4-fluoro-3,6-dihydropyridin-1 (2H)-yl)methanone] | 10 to 50 nM
44 | CNc1cncc(C(=O)N2CCC[C@@H](Nc3c(C(=O)N4CCC5(CC4)CNCC(F)(F)O5)cc(Br)cc3[N+](=O)[O-])C2)c1 [Example 338] | 10 to 50 nM
45 | CNc1cncc(C(=O)N2CCC[C@@H](Nc3c(C(=O)N4CCC5(CC4)COC(C)(C)C5)cc(Br)cc3[N+](=O)[O-])C2)c1 [Example 339] | 10 to 50 nM
46 | CNc1cncc(C(=O)N2CCC[C@@H](Nc3c(C(=O)N4CCOC(C)(C)C4)cc(Br)cc3[N+](=O)[O-])C2)c1 [Example 340] | 10 to 50 nM
47 | CNc1cncc(C(=O)N2CCC[C@@H](Nc3c(C(=O)N4CCO[C@H](CCl)C4)cc(Br)cc3[N+](=O)[O-])C2)c1 [Example 341] | 10 to 50 nM
48 | CNc1cncc(C(=O)N2CCC[C@@H](Nc3c(C(=O)N4CCO[C@H](C5CC5)C4)cc(Br)cc3[N+](=O)[O-])C2)c1 [Example 342] | 10 to 50 nM
49 | CNc1ccc2c(C(=O)N3CCC[C@@H](Nc4c(C(=O)N5C[C@@H](C)O[C@@H](C)C5)cc(Br)cc4[N+](=O)[O-])C3)cc(=O)[nH]c2c1 [Example 343] | 10 to 50 nM
50 | C=C[C@@H]1CN(C(=O)c2cc(Br)cc([N+](=O)[O-])c2N[C@@H]2CCCN(C(=O)c3cncc(NC)c3)C2)CCO1 [Example 344] | 10 to 50 nM
51 | CNc1cncc(C(=O)N2CCC[C@@H](Nc3c(C(=O)N4CC(C)O[C@H](C(F)(F)F)C4)cc(Br)cc3[N+](=O)[O-])C2)c1 (stereo partly drawn) [Example 345] | 10 to 50 nM
52 | C#C[C@@H]1CN(C(=O)c2cc(Br)cc([N+](=O)[O-])c2N[C@@H]2CCCN(C(=O)c3cncc(NC)c3)C2)CCO1 [Example 346] | 10 to 50 nM
53 | [2H]C([2H])([2H])Nc1cncc(C(=O)N2CCC[C@@H](Nc3c(C(=O)N4C[C@@H](C)O[C@@H](C)C4)cc(Br)cc3[N+](=O)[O-])C2)c1 [Example 347] | 10 to 50 nM
54 | C[C@@H]1CN(C(=O)c2cc(Br)cc([N+](=O)[O-])c2N[C@@H]2CCCN(C(=O)[C@@H]3CCCOC3)C2)C[C@H](C)O1 [Example 348] | 10 to 50 nM
55 | CNc1cncc(C(=O)N2CCC[C@@H](Nc3c(C(=O)N4C[C@@H](C)O[C@@H](C(F)(F)F)C4)cc(Br)cc3[N+](=O)[O-])C2)c1 [Example 349] | 10 to 50 nM
56 | CNc1cncc(C(=O)N2CCC[C@@H](Nc3c(C(=O)N4C[C@H](C)O[C@@H](C(F)(F)F)C4)cc(Br)cc3[N+](=O)[O-])C2)c1 [Example 350] | 50 to 100 nM
57 | CNc1cncc(C(=O)N2CCC[C@@H](Nc3c(C(=O)N4CCOC5(CC5)C4)cc(Br)cc3[N+](=O)[O-])C2)c1 [Example 351] | 10 to 50 nM

Source: US20250042889A1, “3CLPRO PROTEASE INHIBITOR” (SHANGHAI QILU PHARMACEUTICAL RESEARCH AND DEVELOPMENT …, priority 2021, published 2025)
